Like-named read-outs stand apart in the source and are kept apart here.
How the values were obtained:
hDAT [1] = molecular target: T1, hDAT (Homo sapiens, UniProt Q01959); conditions: 10 μM; [^3H]24 binding, PDSP; ref Janowsky et al.[3]; cited from earlier work
mouse = conditions: cited from earlier work
[2] = tested on: cytochrome P450 (5 isozymes); conditions: cited from earlier work
[3] = cited from earlier work
[4] = metabolomic study; cited from earlier work
mDAT = mDAT (Mus musculus, UniProt Q61327); test: [^125I]23 binding to mDAT expressed in HEK-293 cells
hDAT [5] = molecular target: T1, hDAT; conditions: read-out: Kd of [^125I]23 at hDAT; no modulator; cited from earlier work

T1 sequence (Q01959 whole entry): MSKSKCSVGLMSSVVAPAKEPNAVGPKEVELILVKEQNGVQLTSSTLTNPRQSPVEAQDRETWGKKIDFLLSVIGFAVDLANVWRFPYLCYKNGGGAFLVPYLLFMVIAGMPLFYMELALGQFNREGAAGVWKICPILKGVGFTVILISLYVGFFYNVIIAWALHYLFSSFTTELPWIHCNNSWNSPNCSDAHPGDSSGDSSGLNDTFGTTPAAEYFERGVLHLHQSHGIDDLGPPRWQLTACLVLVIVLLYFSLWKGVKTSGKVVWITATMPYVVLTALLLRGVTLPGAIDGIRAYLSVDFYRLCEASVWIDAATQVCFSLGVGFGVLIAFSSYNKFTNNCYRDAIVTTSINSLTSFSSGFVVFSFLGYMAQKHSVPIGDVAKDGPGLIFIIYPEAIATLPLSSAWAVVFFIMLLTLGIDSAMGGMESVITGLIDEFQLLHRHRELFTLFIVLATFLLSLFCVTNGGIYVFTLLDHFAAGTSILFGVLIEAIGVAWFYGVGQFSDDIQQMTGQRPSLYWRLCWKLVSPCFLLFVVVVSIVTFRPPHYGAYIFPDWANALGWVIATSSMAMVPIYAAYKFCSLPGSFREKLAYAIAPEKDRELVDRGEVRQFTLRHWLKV
Sequence of mDAT (Q61327 whole entry): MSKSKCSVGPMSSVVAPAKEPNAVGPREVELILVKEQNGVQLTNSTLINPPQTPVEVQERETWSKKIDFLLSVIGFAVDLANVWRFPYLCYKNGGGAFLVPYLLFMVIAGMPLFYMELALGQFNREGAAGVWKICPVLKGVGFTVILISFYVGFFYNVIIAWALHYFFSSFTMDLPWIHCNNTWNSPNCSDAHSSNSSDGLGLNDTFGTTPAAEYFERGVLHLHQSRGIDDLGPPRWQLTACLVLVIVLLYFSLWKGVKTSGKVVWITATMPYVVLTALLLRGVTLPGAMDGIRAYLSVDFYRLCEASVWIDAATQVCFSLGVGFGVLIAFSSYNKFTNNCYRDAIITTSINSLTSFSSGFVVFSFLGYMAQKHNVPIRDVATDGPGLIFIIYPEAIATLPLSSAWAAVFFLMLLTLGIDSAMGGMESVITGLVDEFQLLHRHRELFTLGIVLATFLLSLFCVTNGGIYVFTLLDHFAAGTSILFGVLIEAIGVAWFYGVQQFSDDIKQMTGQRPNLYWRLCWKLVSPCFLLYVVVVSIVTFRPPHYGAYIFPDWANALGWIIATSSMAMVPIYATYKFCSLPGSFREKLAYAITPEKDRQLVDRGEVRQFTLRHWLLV

For CNC(=O)[C@@]12C[C@@H]1[C@@H](n1cnc3c(NC)nc(C#Cc4ccc(Cl)s4)nc31)[C@H](O)[C@@H]2O [compound 1, (1S,2R,3S,4R,5S)-4-(2-((5-chlorothiophen-2-yl)ethynyl)-6-(methylamino)-9H-purin-9-yl)-2,3-dihydroxy-N-methylbicyclo[3.1.0]hexane-1-carboxamide], the “hDAT Binding Inhibition, % of control” value (hDAT [1]) is given as “NE (no effect)”, the locomotor activity (mouse; 10 mg/kg) is given as “did not significantly stimulate locomotor activity” and the locomotor activity (mouse; 30 mg/kg) is given as “reduced locomotor activity”. The “inhibition of cytochrome P450 (5 isozymes)” value [2] was “do not inhibit”, the “stability in the presence of liver microsomes, plasma and simulated body fluids” value [3] was “stable” and the tolerability in vivo [4] was “well tolerated”.
In the case of COC(=O)[C@H]1[C@@H](c2ccc(I)cc2)CC2CC[C@H]1N2C [compound 23, methyl (1R,2S,3S)-3-(4-iodophenyl)-8-methyl-8-azabicyclo[3.2.1]octane-2-carboxylate], the Kd (mDAT) is listed as 3.9 nM and the Kd (hDAT [5]) is listed as 1.3 nM.
